Patent US20250368638A1, “BICYCLIC INHIBITORS OF NICOTINAMIDE […], COMPOSITIONS AND USES THEREOF” (President and Fellows of Harvard College, priority 2021, published 2025)
Values joined by “and” are separate entries in the source; they are usually repeats but may differ in a detail not shown here. Equal entries are not always repeated.

Experiments:
[1] = molecular target: T1, recombinant human NNMT (Homo sapiens, UniProt P40261); test: in vitro NNMT enzyme inhibition assay (Promega MTase-Glo Methyltransferase Assay); type: biochemical; conditions: 40 nM recombinant human NNMT, 8 μM nicotinamide, 6.7 μM SAM, 20 minutes
T1 sequence (P40261 1-264): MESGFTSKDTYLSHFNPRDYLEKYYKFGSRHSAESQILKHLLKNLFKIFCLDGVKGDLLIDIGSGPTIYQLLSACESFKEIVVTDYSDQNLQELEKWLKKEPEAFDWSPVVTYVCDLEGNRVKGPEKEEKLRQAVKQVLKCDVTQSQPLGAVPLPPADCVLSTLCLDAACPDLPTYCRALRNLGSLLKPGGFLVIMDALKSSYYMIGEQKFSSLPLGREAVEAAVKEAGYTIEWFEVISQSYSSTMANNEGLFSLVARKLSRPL
Description: NNMT biochemical activity for was evaluated using the Promega Mtase-Glo Methyltransferase Assay kit. Assays were performed in a white, flat-bottomed 96 well plate. […] Reactions were performed for 20 minutes at room temperature. MTase-Glo reagent and MTase-Glo detection solution were added according to manufacturer's instructions and luminescence signal measured with a SpectraMax i3 plate reader and data analyzed with GraphPad Prism version 9. Scheme 16 depicts a visual summary of the Promega MTase-Glo Methyltransferase assay used to assess biochemical activity of novel inhibitors.

[2] = FIG. 19
Description: Table printed on a drawing sheet, FIG. 19
Footnotes: %Q: The percent of compound remaining after 60 minutes of exposure to liver microsomes
The patent's description of the figure: FIG. 19 is a table summarizing PK/PD data for compounds 1 to 3 and 11.
First reader's note: The CL value of Compound 11 (36.1) is boxed on the sheet.

[3] = system: K562 (ATCC) cells; test: Cellular potency: 1-MNA levels in K562 cells after compound incubation; type: cell-based; conditions: Homo sapiens, 24 h incubation
Description: Cellular potency was measured in K562 (ATCC) cells via measuring (1-methyl nicotinamide) 1-MNA levels after compound incubation at varying concentrations overnight. Cells were plated at 1 million per well and were incubated for 24 h with compounds at indicated concentrations. Cells were collected by pipetting and extracted with 200 ul acetonitrile containing internal deuterated standard 10 ng/ml d4-1-MNA. Samples were analyzed on an Agilent 64-60 Triple Quad LC/MS with Agilent 1290 Infinity HPLC using a Restek Allure 5 um PPFP column 150 mm×2.1. The mobile phase A was 2.5 mM ammonium formate in water, and mobile phase B was methanol with 0.1% formic acid, delivered at 0.25 mL/min. The capillary voltage was set to 2400V and the nozzle at 300V. The drying gas temperature was 240° C., the drying gas flow rate was 4 L/min, and the nebulizer pressure was 40 psi. The mass spectrometer was run in multiple reaction monitoring mode. Mass transitions were m/z 137.1 à 94.1 for 1-MNA and m/z 141.1 à 98.1 for d4-MNA.

[4] = Permeability assay in Caco-2 cells; conditions: human; for Papp A→B at 2 h, 5 μM / Papp B→A at 2 h, 5 μM / efflux ratio at 2 h, 5 μM: Caco-2, pH 7.4; for recovery at 2 h, 5 µM: Caco-2
Description: Preparation of Caco-2 Cells: 50 μL and 25 mL of cell culture medium were added to each well of the Transwell insert and reservoir, respectively. And then the HTS transwell plates were incubated at 37° C., 5% CO2 for 1 hour before cell seeding. […] Cell culture medium was replaced every other day, beginning no later than 24 hours after initial plating.
Preparation of Stock Solutions: The stock solutions of control and test compounds were prepared in DMSO at the concentration of 10 mM. Digoxin, Prazosin and propranolol were used as control compounds in this assay.
Assay Procedures: The Caco-2 plate was removed from the incubator and washed twice with pre-warmed HBSS (10 mM HEPES, pH 7.4), and then incubated at 37° C. for 30 minutes. The stock solutions of controls and Test compounds were diluted in DMSO to get 1 mM solutions and then diluted with HBSS (10 mM HEPES, pH 7.4) to get 5 μM working solutions. The final concentration of DMSO in the incubation system was 0.5%. To determine the rate of drug transport in the apical to basolateral direction. Add 125 μL of the test compounds to the Transwell insert (apical compartment), and transfer 50 μL sample (DO sample) immediately from the apical compartment to a new 96-well plate. Fill the wells in the receiver plate (basolateral compartment) with 235 μL of HBSS (10 mM HEPES, pH 7.4). To determine the rate of drug transport in the basolateral to apical direction. Add 285 μL of the test compounds to the receiver plate wells (basolateral compartment), and transfer 50 μL sample (DO sample) immediately from the basolateral compartment to a new 96-well plate. Fill the Transwell insert (apical compartment) with 75 μL of HBSS (10 mM HEPES, pH 7.4). Time 0 samples were prepared by transferring 50 μL of 5 μM working solution to wells of the 96-deepwell plate, followed by the addition of 200 μL cold acetonitrile containing appropriate internal standards (100 nM alprazolam, 200 nM labetalol, 200 nM caffeine and 200 nM diclofenac). The plates were incubated at 37° C. for 2 hours. […] Samples were vortexed for 5 minutes and then centrifuged at 3,220 g for 40 minutes. An aliquot of 100 μL of the supernatant was mixed with 100 μL of ultra-pure water to use for LC-MS/MS analysis. To determine the Lucifer Yellow leakage after 2 hour transport period, stock solution of Lucifer yellow was prepared in water and diluted with HBSS (10 mM HEPES, pH 7.4) to reach the final concentration of 100 μM. 100 μL of the Lucifer yellow solution was added to each Transwell insert (apical compartment), followed by filling the wells in the receiver plate (basolateral compartment) with 300 μL of HBSS (10 mM HEPES, pH 7.4). The plates were incubated at 37° C. for 30 minutes. 80 μL samples were removed directly from the apical and basolateral wells (using the basolateral access holes) and transferred to wells of new 96 wells plates.

[5] = FIG. 20
Source text: Table printed on a drawing sheet, FIG. 20
The patent's description of the figure: FIG. 20 is a table summarizing mean PK parameters of various compound 11 samples after different PO dosages in female C57B16/N mice.
First reader's note: The asterisks on two AUC values are not explained on the sheet; the first grid row holds only the heading 'PK Parameter'.

[6] = Caco-2, pH 7.4, Recovery (%) AP-BL
[7] = Caco-2, pH 7.4, Recovery (%) BL-AP

Row | Structure (SMILES) | Papp A→B at 2 h, 5 μM [4] | Papp B→A at 2 h, 5 μM [4] | efflux ratio at 2 h, 5 μM [4] | recovery at 2 h, 5 µM [4, 6] | recovery at 2 h, 5 µM [4, 7] | IC50 [1] | further results
1 | NC(=O)c1cnc2c(c1)CCN2 [Compound 1] | – | – | – | – | – | 105 nM | %Q (Human) [2]: 101.05%; %Q (Mouse) [2]: 88.98%; AUClast [2]: 255 ng·h/mL; CL [2]: 64.2 mL/min/kg; T1/2 [2]: 10.9 min; Vss [2]: 0.904 L/kg
2 | Cc1c(C(N)=O)cnc2c1CC(C)N2 (stereo not shown) [Compound 18] | – | – | – | – | – | 848 nM | –
3 | Cc1c(C(N)=O)cnc2c1C[C@@H](C)N2 [Compound 19A] | – | – | – | – | – | 28 nM and 28 to 43 nM | IC50 [3]: 12 nM
4 | C[C@H]1Nc2ncc(C(N)=O)cc2[C@@H]1C [Compound 26A] | – | – | – | – | – | 20 nM | IC50 [3]: 114 nM
5 | C[C@@H]1Cc2cc(C(N)=O)cnc2N1 [compound 11] | – | – | – | – | – | – | AUClast (h*ng/mL) [5]: 54,351 h*ng/mL; F(%) [5]: >100%; T1/2 [5]: 41.6 min and 50.5 min and 42.5 min; Tmax [5]: 20 min and 34.8 min

Now from value to compound, other results behind:

Row | Papp A→B at 2 h, 5 μM [4] | Papp B→A at 2 h, 5 μM [4] | efflux ratio at 2 h, 5 μM [4] | recovery at 2 h, 5 µM [4, 6] | recovery at 2 h, 5 µM [4, 7] | Structure (SMILES) | IC50 [1] | further results
6 | 0.67 ×10⁻⁶ cm/s | 19 ×10⁻⁶ cm/s | 28.2 | 79.1% | 94.5% | C[C@H]1O[C@@H](O[C@H]2[C@@H](O)C[C@H](O[C@H]3[C@@H](O)C[C@H](O[C@H]4CC[C@@]5(C)[C@H](CC[C@@H]6[C@@H]5C[C@@H](O)[C@]5(C)[C@@H](C7=CC(=O)OC7)CC[C@]65O)C4)O[C@@H]3C)O[C@@H]2C)C[C@H](O)[C@@H]1O [Digoxin] | – | –
7 | 9.44 ×10⁻⁶ cm/s | 28.9 ×10⁻⁶ cm/s | 3.06 | 77% | 90.4% | COc1cc2nc(N3CCN(C(=O)c4ccco4)CC3)nc(N)c2cc1OC [Prazosin] | – | –
8 | 26.9 ×10⁻⁶ cm/s | 16.6 ×10⁻⁶ cm/s | 0.62 | 80% | 88.5% | CC(C)NCC(O)COc1cccc2ccccc12 (stereo not shown) [Propranolol] | – | –
